Experimental data from article PMC9447987, “Long-term memory CD8^+ T cells specific for SARS-CoV-2 in individuals who received the BNT162b2 mRNA vaccine” (Nature Communications, 2022).
Where two headings read alike, the source gives them in different places.

Key:
[1] = system: HLA-A*24:02-restricted CD8+ T cells; assay type: cell-based, human; conditions: for Freq of responder (%): of 17 vaccinated HLA-A*24:02+ individuals (Fig. 4b); for Resp: number of responders (individuals with epitope-specific CD8+ T cells): of 17 vaccinated HLA-A*24:02+ individuals, 1 μM peptide
HLA-A*24:02 = HLA-A*24:02 (Homo sapiens, UniProt P04439, D101N/D140Y/D185E/E176V/E190D/F33S/G103R/G107R/I119L/I121M/I306V/K335N/L105A/L180Q/L300P/N151K/N90K/Q86E/Q94H/R106L/R138H/R89G/T104I/T345S/V100E/W191G/Y123F); assay: HLA stabilization assay using RMA-S-A2402 cells; assay type: binding; conditions: for MFI, HLA-A2402 (APC), representative staining: RMA-S-A2402 cells
[2] = convalescent donor C2, 45.290 weeks since PCR-confirmed diagnosis, peptide-pulsed C1R-A2402
[3] = convalescent donor C3, 2.430 weeks since PCR-confirmed diagnosis, peptide-pulsed C1R-A2402
[4] = convalescent donor C4, 35.000 weeks since PCR-confirmed diagnosis, peptide-pulsed C1R-A2402
[5] = convalescent donor C5, 41.430 weeks since PCR-confirmed diagnosis, peptide-pulsed C1R-A2402
[6] = convalescent donor C6, 20.000 weeks since PCR-confirmed diagnosis, peptide-pulsed C1R-A2402
[7] = convalescent donor C7, 21.710 weeks since PCR-confirmed diagnosis, peptide-pulsed C1R-A2402
[8] = convalescent donor C8, 47.860 weeks since PCR-confirmed diagnosis, peptide-pulsed C1R-A2402
[9] = convalescent donor C9, 21.860 weeks since PCR-confirmed diagnosis, peptide-pulsed C1R-A2402
[10] = convalescent donor C10, 24.570 weeks since PCR-confirmed diagnosis, peptide-pulsed C1R-A2402
[11] = convalescent donor C11, 24.290 weeks since PCR-confirmed diagnosis, peptide-pulsed C1R-A2402
[12] = vaccinated donor V1, 19.000 weeks since 2nd dose, C1R-A2402 pre-pulsed with 1 μM peptide
[13] = vaccinated donor V2, 9.570 weeks since 2nd dose, C1R-A2402 pre-pulsed with 1 μM peptide
[14] = vaccinated donor V3, 8.860 weeks since 2nd dose, C1R-A2402 pre-pulsed with 1 μM peptide
[15] = vaccinated donor V4, 10.430 weeks since 2nd dose, C1R-A2402 pre-pulsed with 1 μM peptide
[16] = vaccinated donor V5, 10.570 weeks since 2nd dose, C1R-A2402 pre-pulsed with 1 μM peptide
[17] = vaccinated donor V6, 9.570 weeks since 2nd dose, C1R-A2402 pre-pulsed with 1 μM peptide
[18] = vaccinated donor V7, 10.140 weeks since 2nd dose, C1R-A2402 pre-pulsed with 1 μM peptide
[19] = vaccinated donor V8, 9.860 weeks since 2nd dose, C1R-A2402 pre-pulsed with 1 μM peptide
[20] = vaccinated donor V9, 20.570 weeks since 2nd dose, C1R-A2402 pre-pulsed with 1 μM peptide
[21] = vaccinated donor V10, 2.000 weeks since 2nd dose, C1R-A2402 pre-pulsed with 1 μM peptide
[22] = vaccinated donor V11, 1.430 weeks since 2nd dose, C1R-A2402 pre-pulsed with 1 μM peptide
[23] = vaccinated donor V12, 1.000 weeks since 2nd dose, C1R-A2402 pre-pulsed with 1 μM peptide
[24] = vaccinated donor V13, 9.000 weeks since 2nd dose, C1R-A2402 pre-pulsed with 1 μM peptide
[25] = vaccinated donor V14, 2.000 weeks since 2nd dose, C1R-A2402 pre-pulsed with 1 μM peptide
[26] = vaccinated donor V15, 6.860 weeks since 2nd dose, C1R-A2402 pre-pulsed with 1 μM peptide
[27] = vaccinated donor V16, 8.860 weeks since 2nd dose, C1R-A2402 pre-pulsed with 1 μM peptide
[28] = vaccinated donor V17, 4.140 weeks since 2nd dose, C1R-A2402 pre-pulsed with 1 μM peptide
[29] = Suppl. Fig. 3b (for Fig. 4a, 4b), peptide(-) 14.8, 26 °C (Maximum) 32.7

Sequence | IFNg-producing cells among CD8 T cells (%) [1, 2] | IFNg-producing cells among CD8 T cells (%) [1, 3] | IFNg-producing cells among CD8 T cells (%) [1, 4] | IFNg-producing cells among CD8 T cells (%) [1, 5] | IFNg-producing cells among CD8 T cells (%) [1, 6] | IFNg-producing cells among CD8 T cells (%) [1, 7] | IFNg-producing cells among CD8 T cells (%) [1, 8] | IFNg-producing cells among CD8 T cells (%) [1, 9] | IFNg-producing cells among CD8 T cells (%) [1, 10] | IFNg-producing cells among CD8 T cells (%) [1, 11] | IFNg-producing cells among CD8 T cells (%) [1, 12] | IFNg-producing cells among CD8 T cells (%) [1, 13] | IFNg-producing cells among CD8 T cells (%) [1, 15] | IFNg-producing cells among CD8 T cells (%) [1, 16] | IFNg-producing cells among CD8 T cells (%) [1, 17] | IFNg-producing cells among CD8 T cells (%) [1, 18] | IFNg-producing cells among CD8 T cells (%) [1, 19] | IFNg-producing cells among CD8 T cells (%) [1, 20] | IFNg-producing cells among CD8 T cells (%) [1, 21] | IFNg-producing cells among CD8 T cells (%) [1, 22] | other results
IYQTSNFRV [S-IV9] | 0.000% | 0.090% | 0.000% | 0.000% | 0.340% | 0.260% | 0.060% | 0.000% | 0.160% | 0.000% | 0% | 0.595% | 0% | 0% | 0.265% | 0% | 0% | 0% | 0% | 0.241% | IFNg-producing cells among CD8 T cells (%) [1, 14]: 0.717%; IFNg-producing cells among CD8 T cells (%) [1, 23]: 0%; IFNg-producing cells among CD8 T cells (%) [1, 24]: 0%; IFNg-producing cells among CD8 T cells (%) [1, 25]: 0%; IFNg-producing cells among CD8 T cells (%) [1, 26]: 0.005%; IFNg-producing cells among CD8 T cells (%) [1, 27]: 0.261%; IFNg-producing cells among CD8 T cells (%) [1, 28]: 0%; MFI, HLA-A2402 (APC), representative staining (HLA-A*24:02; [29]): 33.2
RFDNPVLPF [S-RF9] | 0.770% | 0.050% | 1.110% | 0.000% | 0.000% | 0.000% | 0.000% | 0.000% | 0.000% | 0.000% | 0% | 0.296% | 0.333% | 0.15% | 0% | 0% | 0% | 0.769% | 0% | 0% | IFNg-producing cells among CD8 T cells (%) [1, 23]: 0.495%; IFNg-producing cells among CD8 T cells (%) [1, 24]: 0.076%; IFNg-producing cells among CD8 T cells (%) [1, 25]: 0.633%; IFNg-producing cells among CD8 T cells (%) [1, 26]: 0%; IFNg-producing cells among CD8 T cells (%) [1, 27]: 0.051%; IFNg-producing cells among CD8 T cells (%) [1, 28]: 0%; MFI, HLA-A2402 (APC), representative staining (HLA-A*24:02; [29]): 10.5; binding to HLA-A*24:02 (in words) (HLA-A*24:02; […], 16 peptides tested at 100 μM): did not bind
RVYSTGSNVF [S-RF10] | 1.394% | 0.025% | 0.000% | 0.000% | 0.000% | 0.000% | 0.600% | 0.000% | 0.420% | 0.000% | 0% | 0% | 0.522% | 1.045% | 0% | 0% | 0.127% | 0% | 0.033% | 0.679% | Freq of responder (%) [1]: 5.9%; Resp: number of responders (individuals with epitope-specific CD8+ T cells) [1]: one; IFNg-producing cells among CD8 T cells (%) [1, 14]: 0.19%; IFNg-producing cells among CD8 T cells (%) [1, 23]: 0.143%; IFNg-producing cells among CD8 T cells (%) [1, 24]: 0.275%; IFNg-producing cells among CD8 T cells (%) [1, 25]: 0.249%; IFNg-producing cells among CD8 T cells (%) [1, 26]: 0.267%; IFNg-producing cells among CD8 T cells (%) [1, 27]: 0.199%; IFNg-producing cells among CD8 T cells (%) [1, 28]: 0%; MFI, HLA-A2402 (APC), representative staining (HLA-A*24:02; [29]): 48.0
VFKNIDGYF [S-VF9] | 0.300% | 0.050% | 1.030% | 0.000% | 0.310% | 0.000% | 0.370% | 0.490% | 0.000% | 0.000% | 0% | 0% | 0.114% | 0.154% | 0% | 0.163% | 0% | 0% | 0% | 0% | IFNg-producing cells among CD8 T cells (%) [1, 14]: 0%; IFNg-producing cells among CD8 T cells (%) [1, 23]: 0.427%; IFNg-producing cells among CD8 T cells (%) [1, 24]: 0%; IFNg-producing cells among CD8 T cells (%) [1, 25]: 0.009%; IFNg-producing cells among CD8 T cells (%) [1, 26]: 0%; IFNg-producing cells among CD8 T cells (%) [1, 27]: 0.255%; IFNg-producing cells among CD8 T cells (%) [1, 28]: 0.147%; MFI, HLA-A2402 (APC), representative staining (HLA-A*24:02; [29]): 38.0
VFVSNGTHWF [S-VFF10] | 0.490% | 0.090% | 0.710% | 0.000% | 0.560% | 0.000% | 0.420% | 0.110% | 0.000% | 0.000% | 0% | 0% | 0.485% | 0.489% | 0% | 0% | 0% | 3.184% | 0% | 0% | Freq of responder (%) [1]: 5.9%; Resp: number of responders (individuals with epitope-specific CD8+ T cells) [1]: one; IFNg-producing cells among CD8 T cells (%) [1, 14]: 0%; IFNg-producing cells among CD8 T cells (%) [1, 23]: 0.283%; IFNg-producing cells among CD8 T cells (%) [1, 24]: 0.024%; IFNg-producing cells among CD8 T cells (%) [1, 25]: 0%; IFNg-producing cells among CD8 T cells (%) [1, 26]: 0.253%; IFNg-producing cells among CD8 T cells (%) [1, 27]: 0%; IFNg-producing cells among CD8 T cells (%) [1, 28]: 0%; MFI, HLA-A2402 (APC), representative staining (HLA-A*24:02; [29]): 22.3; MFI, HLA-A2402 (APC), representative staining (HLA-A*24:02; Suppl. Fig. 3c (for Fig. 4c), peptide(-) 11.7, 26 °C (Maximum) 28.9): 37.9
